Laboratory results from US4596873A, “1,4,5,6,7,8-Hexahydro-2-alkyl-4-aryl-5-oxo-1,7-naphthyridine-3-carboxyl ic acid aromatic esters and pharmaceutically acceptable acid addition salts thereof useful as antihypertensive agents” (American Home Products Corporation, priority 1985, dated 1986).

Columns and labels:
[1] = system: arterial actin-myosin interactions; assay: inhibition of superprecipitation (antagonism of arterial actin-myosin interaction); type: biochemical; conditions: six minute time-point, mean±SEM
Method: (§1) The data reported herein was obtained at a six minute time-point rather than the 1.5, 5 and 12 minute time points indicated in the superprecipitation assay of the Silver et al. paper.
(§2) The following examples illustrate the preparation of a representative number of compounds of this invention. After each example, and Ca^+2 antagonist activity of the compound is presented in terms of percent relaxation of aortic tissue (P.R.) at 10^-5 M concentration. […] Inhibition of superprecipitation (Antag. of Actin-Myosin interaction) is expressed as percent inhibition (mean±standard error of the mean for at least 3 separate experiments) at a compound concentration. In the same manner, inhibition of myosin light chain phosphorylation (Antag. of MLCP) is expressed as a percent inhibition at a compound concentration. Similarly, the antihypertensive activity is reported in terms of millimeters mercury (mmHg) systolic blood pressure (B.P.) reduction at the stated time post 50 mg/kg oral dosing or other dosing as indicated.

[2] = system: Ca^+2 -calmodulin dependent myosin light chain phosphorylation; assay: inhibition of Ca^+2-calmodulin dependent myosin light chain phosphorylation (MLCP); type: biochemical
Method: as §1, §2

[3] = system: spontaneously hypertensive rats; assay: decrease in systolic blood pressure of spontaneously hypertensive rats; type: in vivo, rat

Row | Structure (SMILES) | inhibition of superprecipitation (Antag. of Actin-Myosin) ([1]; 25 μM) [%] | inhibition of superprecipitation (Antag. of Actin-Myosin) ([1]; 50 μM) [%] | inhibition of superprecipitation (Antag. of Actin-Myosin) ([1]; 100 μM) [%] | inhibition of myosin light chain phosphorylation (Antag. of MLCP) ([2]; 25 μM) [%] | inhibition of myosin light chain phosphorylation (Antag. of MLCP) ([2]; 50 μM) [%] | inhibition of myosin light chain phosphorylation (Antag. of MLCP) ([2]; 100 μM) [%] | systolic blood pressure (B.P.) reduction ([3]; 10 mg/kg, 4 hours) [mmHg] | systolic blood pressure (B.P.) reduction ([3]; 50 mg/kg oral, 1.5 hours) [mmHg] | systolic blood pressure (B.P.) reduction ([3]; 50 mg/kg oral, 4 hours) [mmHg] | systolic blood pressure (B.P.) reduction ([3]; 10 mg/kg, 1.5 hours) [mmHg] | systolic blood pressure (B.P.) reduction ([3]; 25 mg/kg, 1.5 hours) [mmHg] | systolic blood pressure (B.P.) reduction ([3]; 25 mg/kg, 4 hours) [mmHg]
1 | CC1=C(C(=O)OCCOc2ccccc2)C(c2c(F)c(F)c(F)c(F)c2F)C2=C(CNCC2=O)N1 (racemic) [Example 2, 1,4,5,6,7,8-Hexahydro-2-methyl-5-oxo-4-(pentafluorophenyl)-1,7-naphthyridine-3-carboxylic acid 2-phenoxyethyl ester] | 28±2 | 58±4 | 72±2 | 24±3 | 54±4 | 69±3 | -51 |  |  |  |  | 
2 | CO[C@H](COC(=O)C1=C(C)NC2=C(C(=O)CNC2)C1c1c(F)c(F)c(F)c(F)c1F)c1ccccc1 (single isomer, unassigned) [Example 8 Diastereomer A, 1,4,5,6,7,8-Hexahydro-2-methyl-5-oxo-4(R or S-pentafluorophenyl)-1,7-naphthyridine-3-carboxylic acid (S)-2-methoxy-2-phenylethyl esters] |  | 28 | 69 |  | 28 | 63 |  |  |  |  |  | 
3 | CO[C@H](COC(=O)C1=C(C)NC2=C(C(=O)CNC2)C1c1c(F)c(F)c(F)c(F)c1F)c1ccccc1 (single isomer, unassigned) [Example 8 Diastereomer B, 1,4,5,6,7,8-Hexahydro-2-methyl-5-oxo-4(R or S-pentafluorophenyl)-1,7-naphthyridine-3-carboxylic acid (S)-2-methoxy-2-phenylethyl esters] |  | 30 | 64 |  | 34 | 62 |  |  |  |  |  | 
4 | CC1=C(C(=O)OCCOc2ccccc2)C(c2c(F)c(F)c(F)c(F)c2F)C2=C(CNCC2=O)N1 (single isomer, unassigned; (-)) [Example 3, (-)-1,4,5,6,7,8-Hexahydro-2-methyl-5-oxo-4-(pentafluorophenyl)-1,7-naphthyridine-3-carboxylic acid 2-phenoxyethyl ester] |  | 65 | 76 |  | 57 | 70 |  |  |  |  |  | 
5 | COC(COC(=O)C1=C(C)NC2=C(C(=O)CNC2)C1c1cccc(Cl)c1Cl)c1ccccc1 (centres unmarked) [Example 1, 4-(2,3-Dichlorophenyl)-1,4,5,6,7,8-hexahydro-2-methyl-5-oxo-1,7-naphthyridine-3-carboxylic acid 2-methoxy-2-phenylethyl ester] | 43±2 | 75±3 | 83±3 | 38±3 | 66 | 76±2 |  | -53 | -30 |  |  | 
6 | CO[C@@H](COC(=O)C1=C(C)NC2=C(C(=O)CNC2)C1c1c(F)c(F)c(F)c(F)c1F)c1ccccc1 (stereo partly drawn) [Example 6, 1,4,5,6,7,8-Hexahydro-2-methyl-5-oxo-4-(pentafluorophenyl)-1,7-naphthyridine-3-carboxylic acid (R)-2-methoxy-2-phenylethyl ester] |  | 64 | 74 |  | 56 | 70 | -49 |  |  | -56 |  | 
7 | COC(COC(=O)C1=C(C)NC2=C(C(=O)CNC2)C1c1c(F)cccc1Cl)c1ccccc1 (centres unmarked) [Example 9, 4-(2-Chloro-6-fluorophenyl)-1,4,5,6,7,8-hexahydro-2-methyl-5-oxo-1,7-naphthyridine-3-carboxylic acid 2-methoxy-2-phenylethyl ester] |  |  | 40 |  |  | 44 |  | -37 | -14 |  |  | 
8 | COC(COC(=O)C1=C(C)NC2=C(C(=O)CNC2)C1c1cccc(Cl)c1)c1ccccc1 (centres unmarked) [Example 11, 4-(3-Chlorophenyl)-1,4,5,6,7,8-hexahydro-2-methyl-5-oxo-1,7 naphthyridine-3-carboxylic acid 2-methoxy-2-phenylethyl ester] |  |  | 53 |  |  | 48 |  | -29 | -38 |  |  | 
9 | COC(COC(=O)C1=C(C)NC2=C(C(=O)CNC2)C1c1ccccc1C(F)(F)F)c1ccccc1 (centres unmarked) [Example 12, 1,4,5,6,7,8-Hexahydro-2-methyl-5-oxo-4-[2-(trifluoromethyl)phenyl]-1,7-naphthyridine-3-carboxylic acid 2-methoxy-2-phenylethyl ester] |  |  | 30 |  |  | 24 |  |  |  |  | -56 | -56
10 | CC1=C(C(=O)OC(C)COc2ccccc2)C(c2c(F)c(F)c(F)c(F)c2F)C2=C(CNCC2=O)N1 (centres unmarked) [Example 13, 1,4,5,6,7,8-Hexahydro-2-methyl-5-oxo-4-(pentafluorophenyl)-1,7-naphthyridine-3-carboxylic acid 1-methyl-2-phenoxyethyl ester] | 61 |  | 78 | 58 |  | 70 |  | -35 | -60 |  |  | 
11 | CC1=C(C(=O)OCC2COc3ccccc3O2)C(c2c(F)c(F)c(F)c(F)c2F)C2=C(CNCC2=O)N1 (centres unmarked) [Example 14, 1,4,5,6,7,8-Hexahydro-2-methyl-5-oxo-4-(pentafluorophenyl)-1,7-naphthyridine-3-carboxylic acid 2,3-dihydro-1,4-benzodioxin-2-ylmethyl ester] | 65 |  | 80 | 59 |  | 76 |  | -46 | -42 |  |  | 
12 | CC1=C(C(=O)OCCOc2ccccc2)C(c2ccccc2C)C2=C(CNCC2=O)N1 (centres unmarked) [Example 15, 1,4,5,6,7,8-Hexahydro-2-methyl-4-(2-methylphenyl)-5-oxo-1,7-naphthyridine-3-carboxylic acid 2-phenoxyethyl ester] |  |  | 66±5 |  |  | 61±5 |  |  |  |  | -29 | -39
13 | CC1=C(C(=O)OCCOc2ccccc2)C(c2c(F)ccc(F)c2F)C2=C(CNCC2=O)N1 (centres unmarked) [Example 16, 1,4,5,6,7,8-Hexahydro-2-methyl-5-oxo-4-(2,3,6-trifluorophenyl)-1,7-naphthyrdine-3-carboxylic acid 2-phenoxyethyl ester] |  |  | 34 |  |  | 28 |  |  |  |  |  | -18
14 | CC1=C(C(=O)OCCc2ccccc2)C(c2c(F)c(F)c(F)c(F)c2F)C2=C(CNCC2=O)N1 (centres unmarked) [Example 18, 1,4,5,6,7,8-Hexahydro-2-methyl-5-oxo-4-(pentafluorophenyl)-1,7-naphthyridine-3-carboxylic acid 2-phenylethyl ester] | 42 | 65 | 78±2 | 35 | 64 | 77±3 | -24 |  |  | -27 |  | 
15 | CC1=C(C(=O)OCCOc2ccccc2)C(c2cccc(Cl)c2Cl)C2=C(CNCC2=O)N1.Cl (centres unmarked) [Example 19, 4-(2,3-Dichlorophenyl)-1,4,5,6,7,8-hexahydro-2-methyl-5-oxo-1,7-naphthyridine-3-carboxylic acid 2-phenoxyethyl ester, hydrochloride] |  |  | 71 |  |  | 69 |  | -50 | -73 |  |  | 
16 | CC1=C(C(=O)OCC(C)(C)Oc2ccccc2)C(c2c(F)c(F)c(F)c(F)c2F)C2=C(CNCC2=O)N1.Cl (centres unmarked) [Example 20, 1,4,5,6,7,8-Hexahydro-2-methyl-5-oxo-4-(pentafluorophenyl)-1,7-naphthyridine-3-carboxylic acid 2-methyl-2-phenoxypropyl ester, hydrochloride] |  |  | 67 |  |  | 62 |  |  |  |  | -64 | -41
